The values below come from patent publication US11267824B2, “Inhibitors of indoleamine 2,3-dioxygenase and/or tryptophan 2,3-dioxygenase” (IDORSIA PHARMACEUTICALS LTD, priority 2017, dated 2022).

Experiment [1] concerns the target Recombinant full-length human IDO1 (Homo sapiens (Human), UniProt P14902). Briefly: IDO1 enzymatic assay (IDO inhibitory activity). The experiment is classed as biochemical. Particulars: 2 nM enzyme, 5 μM L-tryptophan, pH6.5, 30 min pre-incubation, NFK quantified by LCMS; mean values if measured multiple times; read-out: hIDO activity (IC50 in nM). The essentials:
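N-His-tagged enzyme from E. coli at 2 nM in 37.5 mM phosphate pH6.5 with ascorbate, methylene blue, catalase; compounds 10 μM–0.5 nM, 0.6% DMSO, pre-incubated 30 min RT, then 5 μM L-tryptophan for 30 min RT. NFK quantified by LCMS against d5-tryptophan; IC50 from duplicate four-parameter fit, means where repeated.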

In experiment [2] the target is Recombinant human TDO comprising amino acids 19-407 (Homo sapiens (Human), UniProt P48775). Put plainly: TDO2 enzymatic assay (TDO inhibitory activity). The experiment is classed as biochemical. Particulars: 15 nM enzyme, 200 μM L-tryptophan, pH7, 30 min pre-incubation, NFK quantified by LCMS; mean values if measured multiple times; read-out: hTDO activity (IC50 in nM). The essentials: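 His-tagged enzyme (15 nM, E. coli-expressed) in pH 7 phosphate buffer with ascorbate, catalase, BSA, Tween 20, 0.6% DMSO; 30 min RT pre-incubation with compound (10 μM–0.5 nM), then 200 μM L-tryptophan for 30 min RT. N′-formylkynurenine quantified by LCMS against deuterated tryptophan; IC50 by four-parameter fit, duplicates.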
Recombinant human TDO comprising amino acids 19-407, sequence (P48775 19-406 limits assumed): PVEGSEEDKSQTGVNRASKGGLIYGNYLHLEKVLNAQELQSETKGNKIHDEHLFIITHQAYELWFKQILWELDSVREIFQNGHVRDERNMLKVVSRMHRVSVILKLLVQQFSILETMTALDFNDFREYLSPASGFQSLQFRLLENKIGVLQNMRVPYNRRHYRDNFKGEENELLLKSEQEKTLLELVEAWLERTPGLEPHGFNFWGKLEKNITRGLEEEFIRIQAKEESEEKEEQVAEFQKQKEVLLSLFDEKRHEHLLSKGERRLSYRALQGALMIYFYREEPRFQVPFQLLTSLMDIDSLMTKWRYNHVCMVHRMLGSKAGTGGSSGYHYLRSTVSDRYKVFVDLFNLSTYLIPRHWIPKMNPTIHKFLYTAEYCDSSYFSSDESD

Recombinant full-length human IDO1, sequence (P14902 whole entry): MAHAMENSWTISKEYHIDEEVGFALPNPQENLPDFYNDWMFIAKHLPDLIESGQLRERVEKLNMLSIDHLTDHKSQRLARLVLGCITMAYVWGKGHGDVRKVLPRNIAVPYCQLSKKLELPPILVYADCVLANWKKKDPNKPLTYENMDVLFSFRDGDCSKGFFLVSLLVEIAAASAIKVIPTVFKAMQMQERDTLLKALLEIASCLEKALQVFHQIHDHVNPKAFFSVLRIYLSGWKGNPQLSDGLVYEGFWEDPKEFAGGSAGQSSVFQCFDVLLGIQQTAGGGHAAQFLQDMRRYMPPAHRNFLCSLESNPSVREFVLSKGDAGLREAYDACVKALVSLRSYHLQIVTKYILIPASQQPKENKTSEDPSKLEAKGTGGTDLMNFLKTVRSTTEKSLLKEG

Take `Cc1ccc(-c2sc3cncn3c2C(O)C2CCCCC2)cc1` (racemic) [Example 126, rac-Cyclohexyl-(2-p-tolyl-imidazo[5,1-b]thiazol-3-yl)-methanol]: the IC50 in experiment [1] turned out to be 3100 nM; in experiment [2], 1010 nM.

Consider `COc1ccc(-c2sc3cncn3c2C(O)C2CCCCC2)cc1` (racemic) [Example 127, rac-Cyclohexyl-[2-(4-methoxy-phenyl)-imidazo[5,1-b]thiazol-3-yl]-methanol], for which the IC50 in experiment [1] came out at 3090 nM; in experiment [2] it was 1990 nM.

Consider `CCCc1sc2cncn2c1C(O)CC1CCCCC1` (racemic) [Example 129, rac-2-Cyclohexyl-1-(2-propyl-imidazo[5,1-b]thiazol-3-yl)-ethanol], for which the results for the IC50 in experiment [1] and in experiment [2] were 36.8 nM and 595 nM, respectively.

In the case of `CCCc1sc2cncn2c1C(O)C1CCCCC1` (racemic) [Example 130, rac-Cyclohexyl-(2-propyl-imidazo[5,1-b]thiazol-3-yl)-methanol], the half-inhibitory concentration (IC50) in experiment [1] stood at 49.5 nM; in experiment [2], 153 nM.

With `COC1CCC(CC(O)c2c(C3CC3)sc3cncn23)CC1` (racemic) [Example 131, rac-1-(2-Cyclopropyl-imidazo[5,1-b]thiazol-3-yl)-2-(4-methoxy-cyclohexyl)-ethanol], the IC50 in experiment [1] is 11.3 nM; in experiment [2] it was 1330 nM.

`OC(c1c(C(F)(F)F)sc2cncn12)C1CCCC1` (racemic) [Example 132, rac-Cyclopentyl-(2-trifluoromethyl-imidazo[5,1-b]thiazol-3-yl)-methanol]: the IC50 in experiment [1] worked out at 44.3 nM; in experiment [2], 591 nM.

`OC(CC1CCC(C2CCCC2)CC1)c1c(C2CC2)sc2cncn12` (racemic) [Example 134, rac-2-(4-Cyclopentyl-cyclohexyl)-1-(2-cyclopropyl-imidazo[5,1-b]thiazol-3-yl)-ethanol]: the IC50 in experiment [1] came to 757 nM; in experiment [2], 2800 nM.

For `CC1(C(O)c2c(C(F)(F)F)sc3cncn23)CCCC1` (racemic) [Example 137, rac-(1-Methyl-cyclopentyl)-(2-trifluoromethyl-imidazo[5,1-b]thiazol-3-yl)-methanol], the results for the concentration for half-maximal inhibition (IC50) in experiment [1] and in experiment [2] were 16.3 nM and 54.7 nM, respectively.

With `OC(CC1CCC(C(F)F)CC1)c1c(C2CC2)sc2cncn12` (racemic) [Example 138, rac-1-(2-Cyclopropyl-imidazo[5,1-b]thiazol-3-yl)-2-(4-difluoromethyl-cyclohexyl)-ethanol], the half-maximal inhibitory concentration (IC50) in experiment [1] came to 24.3 nM; in experiment [2] it was 467 nM.

Regarding `Cc1sc2cncn2c1C(O)C1(C)CCCC1` (racemic) [Example 140, rac-(1-Methyl-cyclopentyl)-(2-methyl-imidazo[5,1-b]thiazol-3-yl)-methanol], the half-inhibitory concentration (IC50) stood at 30 nM in experiment [1] and 19.9 nM in experiment [2].

For `CCC1CCC(CC(O)c2c(C3CC3)sc3cncn23)CC1` (racemic) [Example 142, rac-1-(2-Cyclopropyl-imidazo[5,1-b]thiazol-3-yl)-2-(4-ethyl-cyclohexyl)-ethanol], the 50% inhibitory concentration (IC50) in experiment [1] worked out at 85.8 nM; in experiment [2] it was 2000 nM.

For `OC(c1cccc(C(F)(F)F)c1)c1c(C2CC2)sc2cncn12` (racemic) [Example 143, rac-(2-Cyclopropyl-imidazo[5,1-b]thiazol-3-yl)-(3-trifluoromethyl-phenyl)-methanol], the results for the IC50 in experiment [1] and in experiment [2] were 587 nM and 765 nM, respectively.

As for `OC(c1ccc(F)cc1)c1c(C2CC2)sc2cncn12` (racemic) [Example 144, rac-(2-Cyclopropyl-imidazo[5,1-b]thiazol-3-yl)-(4-fluoro-phenyl)-methanol], the figures for the IC50 in experiment [1] and in experiment [2] were 32.8 nM and 475 nM, respectively.

On to `OC(c1cccc(F)c1)c1c(C2CC2)sc2cncn12` (racemic) [Example 145, rac-(2-Cyclopropyl-imidazo[5,1-b]thiazol-3-yl)-(3-fluoro-phenyl)-methanol], for which the values for the concentration for half-maximal inhibition (IC50) in experiment [1] and in experiment [2] were 33.1 nM and 449 nM, respectively.

With `OC(c1ccc(Cl)cc1)c1c(C2CC2)sc2cncn12` (racemic) [Example 146, rac-(4-Chloro-phenyl)-(2-cyclopropyl-imidazo[5,1-b]thiazol-3-yl)-methanol], the figures for the IC50 in experiment [1] and in experiment [2] were 63.9 nM and 1090 nM, respectively.

For the compound `COc1ccccc1C(O)c1c(C2CC2)sc2cncn12` (racemic) [Example 147, rac-(2-Cyclopropyl-imidazo[5,1-b]thiazol-3-yl)-(2-methoxy-phenyl)-methanol], the half-inhibitory concentration (IC50) turned out to be 1110 nM in experiment [1] and 6800 nM in experiment [2].

On to `Cc1ccccc1C(O)c1c(C2CC2)sc2cncn12` (racemic) [Example 148, rac-(2-Cyclopropyl-imidazo[5,1-b]thiazol-3-yl)-o-tolyl-methanol], for which the IC50 in experiment [1] was 1160 nM; in experiment [2], 2530 nM.

In the case of `OC(c1cccc(Cl)c1)c1c(C2CC2)sc2cncn12` (racemic) [Example 149, rac-(3-Chloro-phenyl)-(2-cyclopropyl-imidazo[5,1-b]thiazol-3-yl)-methanol], the results for the IC50 in experiment [1] and in experiment [2] were 65.1 nM and 1820 nM, respectively.

Turning to `CCCC1CCC(CC(O)c2c(C3CC3)sc3cncn23)CC1` (racemic) [Example 150, rac-1-(2-Cyclopropyl-imidazo[5,1-b]thiazol-3-yl)-2-(4-propyl-cyclohexy-etethanol], the IC50 in experiment [1] was 687 nM; in experiment [2], 3230 nM.

With `OC1CCC(C(O)c2c(C3CC3)sc3cncn23)CC1` (racemic) [Example 151, rac-4-[(2-Cyclopropyl-imidazo[5,1-b]thiazol-3-yl)-hydroxy-methyl]-cyclohexanol], the values for the concentration for half-maximal inhibition (IC50) in experiment [1] and in experiment [2] were 102 nM and 2640 nM, respectively.

`OC1CCC(CC(O)c2c(C3CC3)sc3cncn23)CC1` (racemic) [Example 152, rac-4-[2-(2-Cyclopropyl-imidazo[5,1-b]thiazol-3-yl)-2-hydroxy-ethyl]-cyclohexanol]: the IC50 in experiment [1] is 18.4 nM; in experiment [2], 1130 nM.

Take `Cc1cc(-c2sc3cncn3c2C(O)C2CCCCC2)cs1` (racemic) [Example 153, rac-Cyclohexyl-[2-(5-methyl-thiophen-3-yl)-imidazo[5,1-b]thiazol-3-yl]-methanol]: the IC50 in experiment [1] is 766 nM; in experiment [2], 854 nM.

Consider `OC(c1c(Cc2ccccc2)sc2cncn12)C1CCCCC1` (racemic) [Example 154, rac-(2-Benzyl-imidazo[5,1-b]thiazol-3-yl)-cyclohexyl-methanol], for which the IC50 in experiment [1] was 7110 nM; in experiment [2], 4270 nM.

With `OC(CC1CCCCC1)c1c(C2CC(F)(F)C2)sc2cncn12` (racemic) [Example 155, rac-2-Cyclohexyl-1-[2-(3,3-difluoro-cyclobutyl)-imidazo[5,1-b]thiazol-3-yl]-ethanol], the IC50 turned out to be 485 nM in experiment [1] and 1910 nM in experiment [2].

Consider `OC(c1c(C2CC(F)(F)C2)sc2cncn12)C1CCCCC1` (racemic) [Example 156, rac-Cyclohexyl-[2-(3,3-difluoro-cyclobutyl)-imidazo[5,1-b]thiazol-3-yl]-methanol], for which the IC50 in experiment [1] was determined as 1070 nM; in experiment [2] it was 1780 nM.

`COCc1sc2cncn2c1C(O)C1CCCCC1` (racemic) [Example 157, rac-Cyclohexyl-(2-methoxymethyl-imidazo[5,1-b]thiazol-3-yl)-methanol]: the IC50 turned out to be 744 nM in experiment [1] and 327 nM in experiment [2].

For the compound `Cc1sc2cncn2c1C(O)C#Cc1ccccc1` (racemic) [Example 158, rac-1-(2-Methyl-imidazo[5,1-b]thiazol-3-yl)-3-phenyl-prop-2-yn-1-ol], the results for the concentration for half-maximal inhibition (IC50) in experiment [1] and in experiment [2] were 459 nM and greater than 10200 nM, respectively.

As to `OC(c1ccc(C(F)(F)F)cc1)c1c(C2CC2)sc2cncn12` (racemic) [Example 159, rac-(2-Cyclopropyl-imidazo[5,1-b]thiazol-3-yl)-(4-trifluoromethyl-phenyl)-methanol], the IC50 was 305 nM in experiment [1] and 2700 nM in experiment [2].

On to `CCNC1CCC(CC(O)c2c(C3CC3)sc3cncn23)CC1` (racemic) [Example 160, rac-1-(2-Cyclopropyl-imidazo[5,1-b]thiazol-3-yl)-2-(4-ethylamino-cyclohexyl)-ethanol], for which the IC50 in experiment [1] was 2370 nM; in experiment [2] it was greater than 10200 nM.

Consider `CC1(C)CCC(C(O)c2c(C(F)(F)F)sc3cncn23)CC1` (racemic) [Example 161, rac-(4,4-Dimethyl-cyclohexyl)-(2-trifluoromethyl-imidazo[5,1-b]thiazol-3-yl)-methanol], for which the half-maximal inhibitory concentration (IC50) in experiment [1] came out at 58.3 nM; in experiment [2], 2770 nM.

Turning to `Cc1sc2cncn2c1C(O)c1ccccc1` (racemic) [Example 162, rac-(2-Methyl-imidazo[5,1-b]thiazol-3-yl)-phenyl-methanol], the 50% inhibitory concentration (IC50) in experiment [1] was 561 nM; in experiment [2] it was 1000 nM.

`OC(c1ccccc1F)c1c(C2CC2)sc2cncn12` (racemic) [Example 163, rac-(2-Cyclopropyl-imidazo[5,1-b]thiazol-3-yl)-(2-fluoro-phenyl)-methanol]: the results for the IC50 in experiment [1] and in experiment [2] were 56.7 nM and 1290 nM, respectively.

With `OC(c1ccccc1Cl)c1c(C2CC2)sc2cncn12` (racemic) [Example 164, rac-(2-Chloro-phenyl)-(2-cyclopropyl-imidazo[5,1-b]thiazol-3-yl)-methanol], the values for the IC50 in experiment [1] and in experiment [2] were 1120 nM and 3020 nM, respectively.
